# Measured values taken from US8318731B2, “Pyrrolopyrimidines” (Janssen Pharmaceutica NV, priority 2007, dated 2012).
# Columns and labels:
# MDA-MB-231 = experiment: Cellular proliferation assay (Alamar blue), MDA-MB-231; format: cell-based; conditions: Homo sapiens, MDA-MB-231, MDA-MB-231 cells; 10% FCS; 72 h with compound; Alamar blue 24 h; read-out: pIC50 MDA/MB231 (converted)
# Description: (§1) Cellular proliferation of these compounds was tested on a panel of different cell lines in the presence of 10% FCS serum (37° C. and 5% (v/v) CO2). In a first step these cells were seeded and incubated for 24 hours in the absence of compound. In the second step the cells were incubated for 72 hours with the compounds to be tested for 72 hours. The viable cell number was finally assessed in a standard Alamar blue cell viability assay.
# (§2) The viable cell number was assessed by incubation for either 4 h (HCT-116, H1299) 6 h (U87-MG) or 24 h (A2780, PC3, MDA-MB-231) with Alamar blue (Resazurin 9 μg/ml, K-Ferrocyanide 90 μM, K-Ferricyanide 90 μM) and the converted fluorescent product was quantified on a fluorescent plate readed (544 nm/590 nm). Effect of the compounds is calculated as of on control cells.
# H1299 = experiment: Cellular proliferation assay (Alamar blue), H1299; format: cell-based; conditions: Homo sapiens, NCI-H1299, H1299 cells; 10% FCS; 72 h with compound; Alamar blue 4 h; read-out: pIC50 H1299 (converted)
# Description: as §1, §2
# A2780 = experiment: Cellular proliferation assay (Alamar blue), A2780; format: cell-based; conditions: Homo sapiens, A2780, A2780 cells; 10% FCS; 72 h with compound; Alamar blue 24 h; read-out: pIC50 A2780 (converted)
# Description: as §1, §2
# U87-MG = experiment: Cellular proliferation assay (Alamar blue), U87-MG; format: cell-based; conditions: Homo sapiens, U-87 MG; U87-MG cells; 10% FCS; 72 h with compound; Alamar blue 6 h; read-out: pIC50 U87MG (converted)
# Description: as §1, §2
# PC3 = experiment: Cellular proliferation assay (Alamar blue), PC3; format: cell-based; conditions: Homo sapiens, PC-3, PC-3 cells; 10% FCS; 72 h with compound; Alamar blue 24 h; read-out: pIC50 PC-3 (converted)
# Description: as §1, §2
# HCT-116 = experiment: Cellular proliferation assay (Alamar blue), HCT-116; format: cell-based; conditions: Homo sapiens; HCT-116 cells; 10% FCS; 72 h with compound; Alamar blue 4 h; read-out: pIC50 HCT-116 (converted)
# Description: as §1, §2
# PLK4 (h) = biological target: T1, PLK4 (h) (Homo sapiens, UniProt O00444); experiment: PLK-4 human kinase scintillation proximity assay (SPA); format: biochemical; conditions: 1 μM ATP, 60 minutes at r.t., read-out: PLK4 pIC50 (converted)
# T1 sequence (O00444 1-970): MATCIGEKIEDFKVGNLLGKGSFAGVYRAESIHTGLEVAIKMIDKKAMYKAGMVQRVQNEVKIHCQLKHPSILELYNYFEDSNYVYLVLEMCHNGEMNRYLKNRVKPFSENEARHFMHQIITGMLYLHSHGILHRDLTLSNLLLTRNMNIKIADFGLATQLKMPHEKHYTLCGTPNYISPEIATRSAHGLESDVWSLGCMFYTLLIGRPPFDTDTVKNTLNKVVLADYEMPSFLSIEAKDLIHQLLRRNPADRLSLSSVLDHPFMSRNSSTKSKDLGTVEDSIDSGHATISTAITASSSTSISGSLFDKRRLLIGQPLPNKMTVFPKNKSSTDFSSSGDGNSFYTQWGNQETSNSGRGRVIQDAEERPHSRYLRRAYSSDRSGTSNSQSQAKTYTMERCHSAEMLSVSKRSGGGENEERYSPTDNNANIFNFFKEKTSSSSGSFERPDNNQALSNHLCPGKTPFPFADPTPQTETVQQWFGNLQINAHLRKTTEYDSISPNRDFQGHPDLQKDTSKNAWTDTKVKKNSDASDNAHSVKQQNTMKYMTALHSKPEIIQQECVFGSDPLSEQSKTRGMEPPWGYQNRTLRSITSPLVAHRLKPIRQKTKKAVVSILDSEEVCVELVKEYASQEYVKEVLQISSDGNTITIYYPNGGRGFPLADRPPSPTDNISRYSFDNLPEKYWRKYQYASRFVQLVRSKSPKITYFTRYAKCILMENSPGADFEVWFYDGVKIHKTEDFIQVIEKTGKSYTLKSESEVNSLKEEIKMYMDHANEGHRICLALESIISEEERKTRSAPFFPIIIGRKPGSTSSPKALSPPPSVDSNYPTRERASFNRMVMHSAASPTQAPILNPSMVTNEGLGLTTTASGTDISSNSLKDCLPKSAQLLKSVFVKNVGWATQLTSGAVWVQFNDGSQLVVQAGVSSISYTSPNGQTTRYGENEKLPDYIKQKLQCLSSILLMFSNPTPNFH
# Description: The in vitro inhibition of a panel of kinases was assessed using either the scintillation proximity assay (SPA) as described by Cook, N. D. et al., Advances in Experimental Medicine and Biology (1991), 36; p. 525-528.
# In the SPA technology the activity of the kinase of interest is measured using an appropriate biotinylated substrate that is incubated with the aforementioned kinase protein in the presence of (^33P) radiolabeled ATP. (^33P) Phosphorylation of the substrate is subsequently measured through binding of the phosphorylated substrate to streptavidine coated beads that are based on the scintillant poly(vinyl toluene) (PVT-Beads). The scintillation intensity is detected by imaging on Leadseeker.
# All kinases are pre-diluted to a 10× working concentration prior to addition into the assay. The composition of the dilution buffer for each kinase is detailed below.
# In a final reaction volume of 30 μl, PLK4 (h) (19 μg/ml) is incubated with 50 mM Hepes pH 8.0, 10 mM MgCl2, 50 mM NaCl, 1 mM NaF, 1 mM DTT, 10 μM of peptide Biotin-RPRGQRDSSYYWE-OH, 1 μM ATP and 2 nM [γ-^33P-ATP] (6.0 μCi/ml). After incubation of 60 minutes at r.t., the reaction is stopped by addition of 40 μL of stop solution containing 8.7 mM EDTA, BSA 0.17%, 0.17% Triton X-100, 1.7 mg/ml SPA beads (GE-healthcare). The plate is centrifuged and read for Scintillation imaging on Leadseeker.
Structure (SMILES),IC50 (MDA-MB-231) [µM],IC50 (H1299) [µM],IC50 (A2780) [µM],IC50 (U87-MG) [µM],IC50 (PC3) [µM],IC50 (HCT-116) [µM],IC50 (PLK4 (h)) [µM]
COc1ccc2cc1OCCCCCC(=O)N(C)CCCN(C)Cc1c[nH]c3ncnc(c13)N2 [Compound 18],> 10,> 10,> 10,> 10,> 10,> 10,0.398
COc1ccc(NC(=O)Nc2ccc3cc2OCC(=O)N(C)CCCN(C)Cc2c[nH]c4ncnc(c24)N3)cc1 [Compound 15],> 10,> 10,0.794,2,> 10,0.794,0.0251
COc1ccc2cc1OCC(=O)N(C1CCCCC1)CCCN(C)Cc1c[nH]c3ncnc(c13)N2 [Compound 64],> 10,> 10,> 10,> 10,> 10,> 10,0.251
CCOCCCOc1ccc2cc1OCC(=O)N(C)CCCN(C)Cc1c[nH]c3ncnc(c13)N2 [Compound 130],3.16,1.58,0.501,2,5.01,0.631,0.0398
O=C1CCCCOc2cc(ccc2Cl)Nc2ncnc3[nH]cc(c23)CN2CCN1CC2 [Compound 104],> 10,> 10,> 10,> 10,> 10,> 10,2
CN1CCCN(C)C(=O)COc2cc(ccc2NC(=O)Nc2ccc(Cl)cc2)Nc2ncnc3[nH]cc(c23)C1 [Compound 116],5.01,0.631,0.0794,3.98,6.31,0.2,0.0316
COc1ccc2cc1OCCCCC(=O)N(C)CCN(C)Cc1c[nH]c3ncnc(c13)N2 [Compound 41],> 10,> 10,> 10,> 10,> 10,> 10,2.51
COCCN1CC(=O)N(C)CCCc2c[nH]c3ncnc(c23)Nc2cc(c(OC)c(OC)c2)C1 [Compound 124],> 10,> 10,> 10,> 10,> 10,> 10,> 10
COc1cc2cc(c1OC)CCC(=O)N(C)CCCN(C)Cc1c[nH]c3ncnc(c13)N2 [Compound 30],> 10,> 10,> 10,> 10,> 10,> 10,> 10
COc1ccc2cc1OCC(=O)N(C)CCCN(Cc1ccccc1)Cc1c[nH]c3ncnc(c13)N2 [Compound 61],> 10,> 10,> 10,> 10,> 10,> 10,0.1
O=C1CCCOc2cc(ccc2Cl)Nc2ncnc3[nH]cc(c23)CN2CCN1CC2 [Compound 106],> 10,> 10,> 10,> 10,> 10,> 10,6.31
CN1CCCN(C)C(=O)COc2cc(ccc2OCC2CC2)Nc2ncnc3[nH]cc(c23)C1 [Compound 68],2,1.58,0.631,1.58,3.16,0.631,0.0398
COc1ccc2cc1OCCCC(=O)N(C)CCCN(C)Cc1c[nH]c3ncnc(c13)N2 [Compound 17],> 10,> 10,> 10,> 10,> 10,> 10,0.251
COc1cc2cc(c1OC)OCCCCC(=O)N(C)CCN(C)Cc1c[nH]c3ncnc(c13)N2 [Compound 87],> 10,> 10,> 10,> 10,> 10,> 10,> 10
CN1CCCN(C)C(=O)COc2cc(ccc2OCC(=O)NC2CCCCC2)Nc2ncnc3[nH]cc(c23)C1 [Compound 118],6.31,1.58,0.398,3.16,6.31,0.631,0.0251
CN1CCN(C)C(=O)CCCOc2cc(ccc2Cl)Nc2ncnc3[nH]cc(c23)C1 [Compound 42],> 10,> 10,> 10,> 10,> 10,> 10,0.794
CN1CCN(C)C(=O)CCCCOc2cc(ccc2N2CCOCC2)Nc2ncnc3[nH]cc(c23)C1 [Compound 48],> 3.16,> 10,> 10,> 10,> 10,> 10,> 10
CN1CCCN(C)C(=O)COc2cc(ccc2Br)Nc2ncnc3[nH]cc(c23)C1 [Compound 139],1.58,0.794,0.631,1,1,0.501,0.0631
CN1CCN(C)C(=O)CN(C)C(=O)CCc2cccc(c2)Nc2ncnc3[nH]cc(c23)C1 [Compound 8],> 10,> 10,> 10,> 10,> 10,> 10,> 10
COc1cc2cc(c1OC)CN(C)CC(=O)N(C)CCCc1c[nH]c3ncnc(c13)N2 [Compound 72],> 10,> 10,> 10,> 10,> 10,> 10,> 10
COc1ccc2cc1OCC(=O)N(C)CCCN(CC1CC1)Cc1c[nH]c3ncnc(c13)N2 [Compound 59],> 10,> 10,> 10,> 10,> 10,> 10,0.158
COc1ccc2cc1OCCCC(=O)N(C)CCN(C)Cc1c[nH]c3ncnc(c13)N2 [Compound 1],> 10,> 10,> 10,> 10,> 10,> 10,0.126
